The target in experiment [1] is GRPR (Homo sapiens, UniProt P30550). The experiment is described as follows: Fluorometric calcium release assay. Conditions: PC-3 cells, 50 nM. Format: cell-based.
Experiment [2] addresses GRPR. Conditions: read-out: Ki (reported value); murine Swiss 3T3 cells; cited from earlier work.

Several values for one entry are separate records, joined by “and”; a condition that tells them apart may be missing. Equal entries are not always repeated.

Data on two compounds can be found in PMC6372246 (ACS Omega, 2019).

Usually Ki stands for the equilibrium dissociation constant of an inhibitor or competing ligand from its target.

GRPR (Homo sapiens, UniProt P30550), sequence (P30550 whole entry): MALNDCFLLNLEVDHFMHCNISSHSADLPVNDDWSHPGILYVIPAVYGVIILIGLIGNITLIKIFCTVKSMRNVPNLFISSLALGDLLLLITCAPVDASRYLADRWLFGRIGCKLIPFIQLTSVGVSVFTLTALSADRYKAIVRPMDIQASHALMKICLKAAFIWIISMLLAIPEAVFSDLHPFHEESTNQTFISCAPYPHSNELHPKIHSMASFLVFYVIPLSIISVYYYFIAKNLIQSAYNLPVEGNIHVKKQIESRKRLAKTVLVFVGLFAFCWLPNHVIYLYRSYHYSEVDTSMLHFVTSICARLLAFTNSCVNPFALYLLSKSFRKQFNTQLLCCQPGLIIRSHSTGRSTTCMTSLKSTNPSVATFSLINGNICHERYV

For `Nc1ncnc2c1ncn2[C@@H]1O[C@H](COP(=O)(O)OP(=O)(O)OP(=O)(O)O)[C@@H](O)[C@H]1O` [ATP, adenosine triphosphate], the Intracellular calcium release at GRPR [1] was 511 ± 45.5 RFUs and > 500 RFUs.

Consider “D-Phe-Gln-Trp-Ala-Val-Gly-His-Leu-ψ-Tac-NH2 [RC-3950-II]”, for which, on GRPR [2], the Ki was 0.078 nM.
